Measured values taken from US11091769B2, “Development and use of modified plants and seeds that are resistant to herbicides and environmental stress” (Texas State University, priority 2017, dated 2021).

Legend:
[1] = system: Arabidopsis seedlings (primary root growth); assay: Root growth inhibition assay; assay type: in vivo, Arabidopsis thaliana; conditions: for root growth sensitivity of PIC30-OX lines: all four PIC30-OX lines; for primary root growth sensitivity of pic30 mutants: pic30-1, pic30-2 and pic30-3, incremental concentrations; for inhibition at 0.1 µM: 100 nM picloram; for primary root growth inhibition: media containing 10 pM picloram
Description: For root growth inhibition assays, 4-5 day old seedlings were transferred to control media and media containing indicated concentrations of different auxins. Primary root lengths were measured after 4 days of incubation, and percentage root growth inhibition was calculated.

DR5::GFP auxin sensor = assay: Auxin induced DR5::GFP expression; assay type: in vivo, Arabidopsis thaliana; conditions: pic30-3 crossed with DR5::GFP; 5 day-old seedlings; 20 hours incubation
Description: To test auxin induced DR5::GFP expression, 5 day-old seedlings were transferred to control media and media containing indicated concentrations of different auxins. Plates were incubated for 20 hours at 21° C. under continuous light. Confocal images were acquired after the incubation period.
Confocal images were acquired using either 20× water immersion or 60× oil immersion lenses with Fluoview™ FV1000 laser scanning confocal microscope (Olympus). While making a quantitative comparison between one or more confocal images, similar laser intensity and transmittance light were used.

[2] = system: Arabidopsis apical root sections (PIC30 transporter); assay: In planta radioactive transport assay; parameters: species or system Arabidopsis thaliana
Description: In planta transport assays were performed according to a protocol described elsewhere (Ito and Gray, Plant Physiology 142, 63-74, 2006) with few modifications. 15 mm root sections (at root tip) from 9 day-old seedlings were excised and incubated in transport assay buffer (TAB, 20 mM MES-KOH, pH 5.6, 10 mM sucrose and 0.5 mM CaCl2) for 30 minutes. Root sections were then transferred to the TAB containing 1.5 nM of ^14C picloram and 10 pM of unlabeled picloram or 7.9 nM of ^3H IAA and incubated for 1-6 hours at room temperature. Following thorough rinsing with cold TAB buffer, root sections were transferred to scintillation vials containing 1 ml of scintillation liquid. Radioactivity was measured using scintillation counter (Beckman Coulter, Calif.).

[3] = system: Arabidopsis seedlings and plants; assay: In planta chlorate sensitivity test; assay type: in vivo, Arabidopsis thaliana
Description: For chlorate sensitivity testing at the seedling stage, seeds were plated onto either control media or media containing 1-1.5 mM sodium chlorate. Plates were incubated under continuous light at 21° C. for 9 days. After the incubation, representative images were acquired using DSLR (PENTAX) camera.
For chlorate and picloram sensitivity testing at the adult stage, 7 day-old seedlings were transferred to soil (Fafard growing mix 2) and grown under continuous light for an additional 12 days. To test chlorate sensitivity, plants were then irrigated with 1 mM sodium chlorate solution on alternating days. Chlorate induced leaf bleaching were examined and imaged after 10-12 days. To test picloram sensitivity, plants were sprayed with 200 g/ha of picloram. Images were acquired 14-18 days after the treatment.

Arabidopsis plants = assay: Foliar picloram sensitivity test at the adult stage; assay type: in vivo, Arabidopsis thaliana
Description: For chlorate and picloram sensitivity testing at the adult stage, 7 day-old seedlings were transferred to soil (Fafard growing mix 2) and grown under continuous light for an additional 12 days. To test chlorate sensitivity, plants were then irrigated with 1 mM sodium chlorate solution on alternating days. Chlorate induced leaf bleaching were examined and imaged after 10-12 days. […] Images were acquired 14-18 days after the treatment.

[4] = system: PIC30pro::PIC30-GUS expression; assay: PIC30-GUS expression, quantitative MUG assay; assay type: in vivo, Arabidopsis thaliana; conditions: 5 day old PIC30pro::PIC30-GUS seedlings; 25 pM picloram; indicated time intervals
Description: To study the effect of picloram on PIC30 expression, 5 day old PIC30pro::PIC30-GUS seedlings were treated with 25 pM picloram in liquid media. They were incubated under continuous light at 21° C. without shaking, and samples were collected at different time intervals and frozen in liquid nitrogen. PIC30-GUS expression was determined through quantitative MUG assay.
Quantification of GUS expression was performed by fluorometric MUG (4-methylumbelliferyl-beta-D-glucuronide) assay following protocol described elsewhere (Parry et al. The Plant Cell 18, […], 2006) and the fluorescence was measured using a Fluorometer (Modulus, Turner Biosystems).

## O=C(O)Cc1c[nH]c2ccccc12 [IAA, indole-3-acetic acid]
[1]; 4 days incubation
  root growth sensitivity of PIC30-OX lines: wild-type sensitivity
  primary root growth sensitivity of pic30 mutants: wild type sensitivity
DR5::GFP auxin sensor
  DR5::GFP expression in pic30-3: upregulated
[2]; 3H-IAA, 15 mm apical root sections
  IAA uptake, wild type versus pic30-3: no difference

## [O-][Cl+2]([O-])O [chlorate, sodium chlorate]
[3]; PIC30-OX lines, adult stage, irrigated with chlorate solution
  chlorate sensitivity: wild-type sensitivity
[3]; all four PIC30-OX lines, seedling stage
  chlorate sensitivity: hypersensitivity
[3]; pic30-1, seedling and adult stages
  chlorate induced cotyledon and leaf bleaching: pronounced cotyledon and leaf bleaching
[3]; pic30-2, seedling and adult stages
  chlorate induced cotyledon and leaf bleaching: pronounced cotyledon and leaf bleaching
[3]; pic30-3, seedling and adult stages
  chlorate induced necrosis and leaf bleaching: insensitive
[3]; wild type, seedling (1-1.5 mM sodium chlorate, 9 days) and adult (1 mM irrigation) stages
  chlorate induced cotyledon and leaf bleaching: pronounced cotyledon and leaf bleaching

## Nc1c(Cl)c(Cl)nc(C(=O)O)c1Cl [picloram]
[1]; Arabidopsis thaliana, 96 h, PIC30-OX lines, 4 days incubation
  inhibition at 0.1 µM: 87 to 89%
[1]; Arabidopsis thaliana, 96 h, four PIC30-OX lines (PIC30-GFP in pic30-3), 10 pM picloram, 4 days incubation
  inhibition at 10 pM: 97 to 98%
[1]; Arabidopsis thaliana, 96 h, pic30-3, 4 days incubation
  inhibition at 0.1 µM: ~10%
[1]; Arabidopsis thaliana, 96 h, wild type, 4 days incubation
  inhibition at 0.1 µM: ~10%
[1]; 4 days incubation
  primary root growth sensitivity of pic30 mutants: highly insensitive
[1]; pic30-3 mutant, 4 days incubation
  primary root growth inhibition: 46%
[1]; three independent homozygous pic30-1-OX lines in wild type background
  primary root growth sensitivity of pic30-1-OX lines: insensitive
[1]; wild type, 4 days incubation
  primary root growth inhibition: approximately 73%
Arabidopsis plants; PIC30-OX adult plants, 100 g/ha
  response to foliar treatment: hypersensitive
Arabidopsis plants; pic30-1, pic30-2, pic30-3 adult plants, 200 g/ha sprayed
  response to foliar treatment: highly insensitive
DR5::GFP auxin sensor
  DR5::GFP expression in pic30-3: not
[2]; pic30-3, 14C-picloram, 15 mm root sections of 9 day-old seedlings
  picloram uptake in pic30-3 versus wild type root sections: significantly lower
[2]; two PIC30-OX lines, 14C-picloram, 15 mm apical root sections
  picloram uptake relative to wild type roots: 26-30 times
[4]
  effect on PIC30 gene expression: did not have influence

## Nc1cc(Cl)nc(C(=O)O)c1Cl [aminopyralid]
[1]; 4 days incubation
  primary root growth sensitivity of pic30 mutants: insensitive
DR5::GFP auxin sensor
  DR5::GFP expression in pic30-3: not

## O=C(O)COc1ccc(Cl)cc1Cl [2,4-D, 2,4-dichlorophenoxyacetic acid]
[1]; 4 days incubation
  primary root growth sensitivity of pic30 mutants: wild type sensitivity
DR5::GFP auxin sensor
  DR5::GFP expression in pic30-3: upregulated

## O=C(O)Cc1cccc2ccccc12 [1-NAA, 1-Naphthaleneacetic acid]
[1]; 4 days incubation
  root growth sensitivity of PIC30-OX lines: wild-type sensitivity
  primary root growth sensitivity of pic30 mutants: wild type sensitivity
